Measured values as given in patent publication US9662461B2, “Dry powder drug delivery system and methods” (MannKind Corporation, priority 2008, dated 2017).

What was measured:
[1] = Pharmacokinetics of FDKP inhaled as FDKP inhalation powder (Example 8); assay type: in vivo, healthy volunteers; conditions: for AVG mean AUC fdkp per emitted fdkp mass: n=10
Protocol: The MEDTONE® inhaler system was used for comparison.
To generate a “hard” inhalation, the subject provided a nominal inhalation time of about 6.5 seconds and a peak pressure of 7 kPa. Conversely, to generate an “easy” inhalation, the subject provided a nominal inhalation time of about 6.5 seconds and a peak pressure of 5 kPa. Coupled with the inhalation monitoring apparatus, gravimetric assessment of the powder mass discharged from the cartridge was performed. This enabled a linkage between inhalation maneuver during dosing, cartridge discharge mass and pharmacokinetic profile determinations for each subject.
The study was an open-label, crossover, 2-part study in healthy volunteers.
Part 2 was carried out as a 2-part, 2-way crossover study for evaluating the effect of flow rate (15 versus 30 LPM) and inhalation time (3 versus 6 seconds). For each parameter tested (i.e., flow rate, and inhalation time), ten subjects were crossed over for each parameter with 20 subjects total for all of the parameters. Pharmacokinetics of FDPK was assessed with each treatment from blood samples taken from the subjects.

[2] = In vitro powder performance DPI 2 vs MEDTONE delivery system (Example 7); assay type: physicochemical; conditions: 4 kPa
Source text: In vitro powder performance for these systems was compared for various parameter of inhaler performance. For DPI 2 a single discharge per cartridge was used as compared to two discharges per cartridge in the MEDTONE® system.
Particle sizing by laser diffraction and quantification of emitted mass as described above were used in these experiments. A laser diffraction instrument (Sympatec HELOS) was adapted with a novel pressurized inhaler chamber to facilitate analysis of powder plumes. MTDS cartridges were discharged twice per determination versus once with DPI 2.

[3] = VMGD and container emptying by laser diffraction, DPI 2 vs predicate inhaler (Example 6); assay type: physicochemical; conditions: 56% trans, SSA 55, 4 kPa
Source text: Laser diffraction of dry powder formulations emitted from dry powder inhalers is a common methodology employed to characterize the level of de-agglomeration subjected to a powder. The methodology indicates a measure of geometric size rather than aerodynamic size as occurring in industry standard impaction methodologies. Typically, the geometric size of the emitted powder includes a volumetric distribution characterized by the median particle size, VMGD. Importantly, geometric sizes of the emitted particles are discerned with heightened resolution as compared to the aerodynamic sizes provided by impaction methods. Smaller sizes are preferred and result in greater likelihood of individual particles being delivered to the pulmonary tract. Thus, differences in inhaler de-agglomeration and ultimate performance can be easier to resolve with diffraction. In these experiments, an inhaler as specified in Example 3 and a predicate inhaler are tested with laser diffraction at pressures analogous to actual patient inspiratory capacities to determine the effectiveness of the inhalation system to de-agglomerate powder formulations. […] Reported in Table 5 are a VMGD and an efficiency of the container emptying during the testing.

[4] = DPI 2, 10 mg fill, single discharge, n=15
[5] = MEDTONE (MTDS), 10 mg fill FDKP, two discharges, n=30

O=C(O)/C=C/C(=O)NCCCCC1NC(=O)C(CCCCNC(=O)/C=C/C(=O)O)NC1=O (stereo not shown) [FDKP, 3,6-bis(N-fumaryl-4-aminobutyl)-2,5-diketopiperazine]
delivery of FDKP into the systemic circulation, DPI 1 better than MEDTONE ([1]; DPI 1 vs MEDTONE inhaler): about 30% | increase in FDKP plasma AUC, DPI 1 over MEDTONE ([1]; FDKP 10 mg): ~2 fold | AVG mean AUC fdkp per emitted fdkp mass ([1]; Part 1, DPI 1, cartridge 10 mg fdkp): 3495 ng * min/mL * mg fdkp | AVG mean AUC fdkp per emitted fdkp mass ([1]; Part 1, MT (MEDTONE), two inhalations, cartridge 10 mg fdkp): 1934 ng * min/mL * mg fdkp | AVG mean AUC fdkp per emitted fdkp mass ([1]; Part 2, DPI 1, 10 mg, long inhalation time): 3289 ng * min/mL * mg fdkp | AVG mean AUC fdkp per emitted fdkp mass ([1]; Part 2, DPI 1, 10 mg, short inhalation time): 3310 ng * min/mL * mg fdkp | AVG mean AUC fdkp per emitted fdkp mass ([1]; Part 3, DPI 1, 10 mg, easy inhalation effort): 3925 ng * min/mL * mg fdkp | AVG mean AUC fdkp per emitted fdkp mass ([1]; Part 3, DPI 1, 10 mg, hard inhalation effort): 3867 ng * min/mL * mg fdkp | Ave. Geometric SD [2, 4]: 3.79 μm | Ave. VMGD [2, 4]: 6.84 μm | Ave. Geometric SD [2, 5]: 2.94 μm | Ave. VMGD [2, 5]: 21.21 μm | VMGD [3]: 6.800 micron
